From ChEMBL document CHEMBL3044763, “Inhibitory Activities of Rhodanine Derivatives on Plant Growth” (Biosci Biotechnol Biochem, 1996)

Columns and labels:
Echinochloa esculenta [1] = experiment: Growth inhibition of Echinochloa esculenta assessed as root growth at 1 x 10^-4 M after 7 days; assay type: functional
[2] = Toxicity in Mus musculus ddY (mouse) assessed as mortality at 5 mg/kg, ip after 7 days; assay type: organism-based; design: dose 5 mg/kg, route intraperitoneal; conditions: in vivo
[3] = Toxicity in Mus musculus ddY (mouse) assessed as mortality at 8 mg/kg, ip after 2 days; assay type: organism-based; design: dose 8 mg/kg, route intraperitoneal; conditions: in vivo
[4] = Toxicity in Mus musculus ddY (mouse) assessed as mortality at 3 mg/kg, ip after 4 days; assay type: organism-based; design: dose 3 mg/kg, route intraperitoneal; conditions: in vivo
Sesamum indicum [5] = experiment: Growth inhibition of Sesamum indicum (sesame) assessed as root growth at 3 x 10^-5 M after 7 days; assay type: functional
[6] = Toxicity in Mus musculus ddY (mouse) assessed as mortality at 7 mg/kg, ip after 3 days; assay type: organism-based; design: dose 7 mg/kg, route intraperitoneal; conditions: in vivo
[7] = system: Brassica rapa subsp. oleifera; experiment: Growth inhibition of Brassica rapa subsp. oleifera assessed as chlorophyll b level at 1 x 10^-4 M after 7 days; assay type: functional; design: scale not given: the % may be the effect or the level left
[8] = Toxicity in Mus musculus ddY (mouse) assessed as mortality at 7 mg/kg, ip after 2 days; assay type: organism-based; design: dose 7 mg/kg, route intraperitoneal; conditions: in vivo
[9] = Toxicity in Mus musculus ddY (mouse) assessed as mortality at 4 mg/kg, ip after 5 days; assay type: organism-based; design: dose 4 mg/kg, route intraperitoneal; conditions: in vivo
Daucus carota = experiment: Growth inhibition of Daucus carota (carrot) assessed as root growth at 1 x 10^-4 M after 7 days; assay type: functional
[10] = system: Brassica rapa subsp. oleifera; experiment: Growth inhibition of Brassica rapa subsp. oleifera assessed as root growth at 5 x 10^-5 M after 7 days; assay type: functional
Lactuca sativa = experiment: Growth inhibition of Lactuca sativa (lettuce) assessed as root growth at 3 x 10^-4 M after 7 days; assay type: functional
Sesamum indicum [11] = experiment: Growth inhibition of Sesamum indicum (sesame) assessed as root growth at 1 x 10^-5 M after 7 days; assay type: functional
[12] = Toxicity in Mus musculus ddY (mouse) assessed as mortality at 8 mg/kg, ip after 6 days; assay type: organism-based; design: dose 8 mg/kg, route intraperitoneal; conditions: in vivo
[13] = Toxicity in Mus musculus ddY (mouse) assessed as mortality at 5 mg/kg, ip after 5 days; assay type: organism-based; design: dose 5 mg/kg, route intraperitoneal; conditions: in vivo
[14] = Toxicity in Mus musculus ddY (mouse) assessed as mortality at 5 mg/kg, ip after 4 days; assay type: organism-based; design: dose 5 mg/kg, route intraperitoneal; conditions: in vivo
[15] = Toxicity in Mus musculus ddY (mouse) assessed as mortality at 4 mg/kg, ip after 6 days; assay type: organism-based; design: dose 4 mg/kg, route intraperitoneal; conditions: in vivo
[16] = Toxicity in Mus musculus ddY (mouse) assessed as mortality at 5 mg/kg, ip after 1 day; assay type: organism-based; design: dose 5 mg/kg, route intraperitoneal; conditions: in vivo
[17] = system: Brassica rapa subsp. oleifera; experiment: Growth inhibition of Brassica rapa subsp. oleifera assessed as total chlorophyll level at 5 x 10^-5 M after 7 days; assay type: functional; design: scale not given: the % may be the effect or the level left
[18] = system: Brassica rapa subsp. oleifera; experiment: Growth inhibition of Brassica rapa subsp. oleifera assessed as root growth at 1 x 10^-4 M after 7 days; assay type: functional
Sesamum indicum [19] = experiment: Growth inhibition of Sesamum indicum (sesame) assessed as root growth at 1 x 10^-4 M after 7 days; assay type: functional
[20] = Toxicity in Mus musculus ddY (mouse) assessed as mortality at 8 mg/kg, ip after 4 days; assay type: organism-based; design: dose 8 mg/kg, route intraperitoneal; conditions: in vivo
[21] = system: Brassica rapa subsp. oleifera; experiment: Growth inhibition of Brassica rapa subsp. oleifera assessed as chlorophyll b level at 5 x 10^-5 M after 7 days; assay type: functional; design: scale not given: the % may be the effect or the level left
[22] = Toxicity in Mus musculus ddY (mouse) assessed as mortality at 6 mg/kg, ip after 3 days; assay type: organism-based; design: dose 6 mg/kg, route intraperitoneal; conditions: in vivo
Allium tuberosum = experiment: Growth inhibition of Allium tuberosum assessed as root growth at 3 x 10^-5 M after 10 days; assay type: functional
Echinochloa esculenta [23] = experiment: Growth inhibition of Echinochloa esculenta assessed as root growth at 3 x 10^-5 M after 7 days; assay type: functional
Echinochloa esculenta [24] = experiment: Growth inhibition of Echinochloa esculenta assessed as root growth at 5 x 10^-5 M after 7 days; assay type: functional

NN1C(=O)CSC1=S [AMINORHODANINE]
Activity (Echinochloa esculenta [1]): 10.8 mm
mortality at 168 h [2]: 60%
mortality at 48 h [3]: 100%
mortality at 96 h [4]: 0%
Activity (Sesamum indicum [5]): 9.5 mm
mortality at 72 h [6]: 80%
Activity [7]: 3.82%
mortality at 48 h [8]: 80%
mortality at 120 h [9]: 20%
Activity (Daucus carota): 2.4 mm
Root length [10]: 26.8 mm
Activity (Lactuca sativa): 0 mm
Activity (Sesamum indicum [11]): 6.8 mm
mortality at 144 h [12]: 100%
mortality at 120 h [13]: 60%
mortality at 96 h [14]: 60%
mortality at 144 h [15]: 20%
mortality at 24 h [16]: 60%
Activity [17]: 13.57%
Activity [18]: 14.1 mm
Activity (Sesamum indicum [19]): 3.2 mm
mortality at 96 h [20]: 100%
Activity [21]: 4.36%
mortality at 72 h [22]: 60%
Activity (Allium tuberosum): 7 mm
Activity (Echinochloa esculenta [23]): 16 mm
Activity (Echinochloa esculenta [24]): 11.2 mm
